According to patent US5260189A, “Synthetic HIV-like peptides their compositions and uses” (Immunodiagnostics, Inc., priority 1992, dated 1993):
“Also recorded” adds a separate entry of the source.

Assays:
antibodies to HIV-1 [1] = experiment: EIA of p24 synthetic peptide-BSA conjugates with serum pools and individual sera; assay type: binding, human
Procedure: (§1) The free peptides or peptide-protein conjugates of FIGS. 1-13 were initially screened for immunoreactivity by coating each well of polystyrene microtiter EIA plates (Costar, Cambridge, Mass., U.S.A.) with 0.2 ml amounts of concentrations of 5-50 micrograms/ml peptide in Tris buffer, 10 mM, pH 8.0, at 4° C. overnight. Peptides or peptide-protein conjugates showing immunoreactivity by EIA were then further diluted for coating to determine the minimal concentrations required that allowed maximal immunoreactivity with antibodies to HIV, and minimal nonspecific reactivity with normal sera. The EIA tests were performed as follows: The coating solution was removed from each well and the wells were blocked at 37° C. for 30 minutes with a solution of 50 mM phosphate, 100 mM NaCl, pH 7.4, 1% BSA, 0.5% gelatin. The wells were then aspirated dry with a microtiter plate washer and washed 3 times with a solution of 50 mM phosphate, 100 mM NaCl, 0.05% Tween 20, pH 7.4 (PBST). A 1:101 dilution (in PBST with 1% BSA, 1% NRS) of the primate serum to be tested was then added as 0.2 ml to each washed well and the plates were incubated at 37° C. for 30 minutes. The plates were then washed×3 with PBST, and 0.2 ml amounts of a 1:2000 dilution of goat anti-human (GAH) peroxidase enzyme conjugate (Organon Teknika, Cappel, Melvern, Pa., U.S.A.) that recognized human IgG, IgA, and IgM were added to each well, and the plates were incubated for 30 minutes at 37° C. The plates were then washed×3 with PBST and incubated with 0.2 ml/well substrate consisting of 0.1M citric acid pH 5.2, 0.1 mg/ml o-phenylene diamine, 0.01% H2 O2, at room temperature in the dark for 10 minutes. Reactions were stopped with 50 microliters of 4N H2 SO4, and the color development was quantitated in a Multiscan plate reader at A492. In each series of experiments positive and negative controls were included, and all tests were done in duplicate or quadruplicate. Most peptides and peptide conjugates were initially screened against a 1:101 dilution of pools of HIV positive or HIV negative sera, and the same serum pool was used to allow quantitative comparison of immunoreactivity of different free peptides or peptide-protein conjugates.
FIG. 8 illustrates the immunoreactivity and AA sequences of synthetic peptides of the p24 protein of HIV-1, when conjugated to BSA via their C-termini using SMCC, and reacted with a pool of approximately 50 sera from persons containing antibody to HIV-1, or with a pool of approximately 30 sera from individuals devoid of antibody to HIV-1. […] No negative sera (0/85, 0%) reacted, and 17 positive sera (17/98, 17%) were immunoreactive. It has been reported that individuals lose antibodies to p24 during the course of progression from asymptomatic infection to clinical disease and AIDS (Franchini et al., Blood 69:(2):437-441, 1987, and Weber et al., Lancet i:119-122, 1987), which may explain the lower frequency of antibodies to this peptide in the sera tested.

antibodies to HIV-1 [2] = experiment: EIA of peptide-protein conjugates coated on polystyrene microtiter plates, human sera; assay type: binding; conditions: for immunoreactivity with HIV-1 antibodies (FIG. 1): C-terminal BSA-SMCC conjugates, 10 micrograms peptide/ml coating, 1:101 dilution of pooled HIV+ / HIV- sera
Procedure: as §1
(§2) The peptides in FIGS. 1 and 5 were synthesized as described in Example 1 and conjugated to KLH or BSA as described in Example 2. These peptide-protein conjugates were coated to polystyrene microtiter plates all at a concentration 10 micrograms peptide/ml and evaluated for immunoreactivity as described in Example 3, using a 1:101 dilution of a pool of sera (HIV+/SIV+, respectively) containing antibodies to HIV-1 (FIG. 1) or to HIV-2 (FIG. 5), as well as pooled serum (HIV-/SIV-, respectively) containing no antibodies to HIV-1 or HIV-2. […] Since sera from patients infected with HIV-2 are relatively unavailable in the United States, the immunoreactivity of HIV-2 synthetic peptides was assessed using serum from macaques infected with SIV, obtained from the University of Washington Primate Center, Seattle, Wash., U.S.A. The AA sequence of SIV is nearly identical to HIV-2 in the region of the peptides synthesized (see Myers et al., Human Retroviruses and AIDS, 1988. A compilation of nucleic acid and amino acid sequences. Los Alamos National Laboratory, Los Alamos, N. Mex., 87545, USA).

Antibodies to HIV-2 = experiment: Detection of seroconversion in macaques experimentally infected with SIV, EIA; assay type: binding, macaque
Procedure: as §1
The immunoreactivity of the HIV-2 peptide BSA conjugates 2S24, (2S24 plus 5S86), and 5S92 was evaluated for detection of seroconversion in macaques using serial sera collected over a 16 week period from 7 macaques experimentally infected with SIV at week 0.

antibodies to SIV/HIV-2 = experiment: EIA of peptide-protein conjugates coated on polystyrene microtiter plates, macaque sera; assay type: binding, rhesus macaque (Macaca mulatta); conditions: for immunoreactivity with SIV/HIV-2 antibodies (FIG. 5): C-terminal BSA-SMCC conjugates, 10 micrograms peptide/ml coating, 1:101 dilution of pooled SIV+ / SIV- macaque sera; for discrimination of positive from negative macaque sera (FIG. 7): peptide-BSA conjugates
Excerpt: For all of the immunoassays employing human serum, the serum samples were obtained from the King County Health Department, Seattle, Wash., U.S.A., and each serum had been characterized as positive or negative with respect to antibodies to HIV-1, as determined by testing with the commercially licensed Genetic Systems and or DuPont EIA tests. Serum from rhesus macaque monkeys (Macaca mulatta) was obtained from the University of Washington, Seattle, Wash., U.S.A., and had been characterized by a SIV whole virus lysate EIA as either containing or not containing antibodies to SIV which is nearly identical in sequence to HIV-2 in the region of the peptide epitopes studied.
as §1, §2

[3] = BSA-SMCC conjugate, 85 individual sera without antibodies to HIV-1
[4] = BSA-SMCC conjugate, 98 individual sera containing antibodies to HIV-1

With “ALGPAATLEEMMTACGC [5S94, HIV-1 p24 peptide with GC tail]” the negative sera reacting (antibodies to HIV-1 [1]; [3]) was 0/85, the “negative sera reacting, percent” value (antibodies to HIV-1 [1]; [3]) was 0% and the positive sera immunoreactive (antibodies to HIV-1 [1]; [4]) was 17/98. For the same sequence, the “positive sera immunoreactive, percent” value (antibodies to HIV-1 [1]; [4]) was 17% and the “immunoreactivity with serum pools (FIG. 8)” value (antibodies to HIV-1 [1]; BSA-SMCC conjugates, pool of approximately 50 HIV+ sera and approximately 30 HIV- sera) was “immunoreactive peptide; also recorded: significant immunoreactivity”.

With AVERYLKDQQLLGC [2S01] the “immunoreactivity with HIV-1 antibodies (FIG. 1)” value (“immunoreactivity … (FIG. 1)” for short) (antibodies to HIV-1 [2]) was “significantly less immunoreactive”.

With CSGKLICTTAVPWNAGC [3S51] the “immunoreactivity … (FIG. 1)” value (antibodies to HIV-1 [2]) was “Significant immunoreactivity; also recorded: higher reactivity”.

For DQARLNSWGCAFRQVC [2S24], the “Reactivity by Peptide-BSA Conjugate (reactive macaques/7)” value (“Reactivity by Peptide-BSA Conjugate” below) (Antibodies to HIV-2; Week 0 (SIV infection at week 0)) was 0/7, the “Reactivity by Peptide-BSA Conjugate” value (Antibodies to HIV-2; Week 1) was 0/7 and the “Reactivity by Peptide-BSA Conjugate” value (Antibodies to HIV-2; Week 2) was 1/7. The “Reactivity by Peptide-BSA Conjugate” value (Antibodies to HIV-2; Week 3) was 2/7, the “Reactivity by Peptide-BSA Conjugate” value (Antibodies to HIV-2; Week 4) was 4/7 and the “Reactivity by Peptide-BSA Conjugate” value (Antibodies to HIV-2; Week 6) was 6/7. For the same sequence, the “Reactivity by Peptide-BSA Conjugate” value (Antibodies to HIV-2; Week 8) was 7/7, the “Reactivity by Peptide-BSA Conjugate” value (Antibodies to HIV-2; Week 12) was 7/7 and the “Reactivity by Peptide-BSA Conjugate” value (Antibodies to HIV-2; Week 16) was 7/7. For the same sequence, the “immunoreactivity with SIV/HIV-2 antibodies (FIG. 5)” value (antibodies to SIV/HIV-2) was “Significant immunoreactivity; also recorded: best immunoreactivity; also recorded: maximally immunoreactive” and the “discrimination of positive from negative macaque sera (FIG. 7)” value (“discrimination of positive” for short) (antibodies to SIV/HIV-2) was “most favorable performances”.

With ERYLKDQQLLGIWGC [2S02] the “immunoreactivity … (FIG. 1)” value (antibodies to HIV-1 [2]) was “significantly less immunoreactive”.

With GCSGKLICTTAVPWNGC [2S11] the “immunoreactivity … (FIG. 1)” value (antibodies to HIV-1 [2]) was “Significant immunoreactivity; also recorded: higher reactivity”.

GKLICTTAVPWNASWGC [3S55] was tested, and the “immunoreactivity … (FIG. 1)” value (antibodies to HIV-1 [2]) was “Significant immunoreactivity; also recorded: higher reactivity”.

“IKQLQARILAVERYLKDQQ [4S24, reference compound]” was tested, and the “immunoreactivity … (FIG. 1)” value (antibodies to HIV-1 [2]) was “lower immunoreactivity”.

For IWGCSGKLICTTAVPGC [2S09], the “immunoreactivity with individual positive sera (FIGS. 10B, 10C)” value (antibodies to HIV-1 [2]; BSA-SMCC conjugate, 98 HIV-1 antibody positive human sera) was “some positive samples had very low immunoreactivity” and the “immunoreactivity … (FIG. 1)” value (antibodies to HIV-1 [2]) was “Significant immunoreactivity; also recorded: slightly superior immunoreactivity; also recorded: maximally immunoreactive; also recorded: higher reactivity”.

In the case of “IWGCSGKMICTTAVPGC [5S76, unnatural variant of HIV-1 gp41 peptide 2S09]”, the “number of positive samples giving A492 less than 1.0” value (antibodies to HIV-1 [2]; BSA-SMCC conjugate, 98 positive human sera (FIGS. 11A, 11B)) is reported as “Five”.

For KDQQLLGIWGCSGKLGC [2S04], the “immunoreactivity … (FIG. 1)” value (antibodies to HIV-1 [2]) was “Significant immunoreactivity”.

For KLICTTAVPWNASWSGC [2S15], the “immunoreactivity … (FIG. 1)” value (antibodies to HIV-1 [2]) was “Significant immunoreactivity; also recorded: higher reactivity”.

For LGIWGCSGKLICTTAGC [2S07], the “immunoreactivity … (FIG. 1)” value (antibodies to HIV-1 [2]) was “Significant immunoreactivity”.

For LLGIWGCSGKLICTTGC [2S06], the “immunoreactivity … (FIG. 1)” value (antibodies to HIV-1 [2]) was “Significant immunoreactivity”.

In the case of QQLLGIWGCSGKLICGC [3S36], the “immunoreactivity … (FIG. 1)” value (antibodies to HIV-1 [2]) is reported as “Significant immunoreactivity”.

“RILAVERYLKDQQLLGIWGCSGKLIC [4S25, reference compound]” was tested, and the “immunoreactivity … (FIG. 1)” value (antibodies to HIV-1 [2]) was “Significant immunoreactivity; also recorded: lower immunoreactivity; also recorded: lower or comparable immunoreactivity”.

In the case of SGKLICTTAVPWNASGC [2S13], the “immunoreactivity … (FIG. 1)” value (antibodies to HIV-1 [2]) is reported as “Significant immunoreactivity; also recorded: higher reactivity”.

With “SWGCAFRQVCHTSVPGC [5S86, HIV-2/SIV natural peptide]” the “discrimination of positive” value (antibodies to SIV/HIV-2) was “most favorable performances”.

In the case of SWGCAFRQVCHTTVPGC [2S27], the “immunoreactivity with SIV/HIV-2 antibodies (FIG. 5)” value (antibodies to SIV/HIV-2) is reported as “Significant immunoreactivity; also recorded: best immunoreactivity; also recorded: maximally immunoreactive” and the “discrimination of positive” value (antibodies to SIV/HIV-2) is reported as “most favorable performances”.

With YLKDQQLLGIWGCSGC [2S03] the “immunoreactivity … (FIG. 1)” value (antibodies to HIV-1 [2]) was “significantly less immunoreactive”.
